Assay [1] has as its target T1, NcLPMO9C (Neurospora crassa, UniProt Q7SHI8).
T1 construct: gene gh61-3; CBM1-containing enzyme, produced in Pichia pastoris as described earlier, copper-saturated
T1 sequence (Q7SHI8 17-359): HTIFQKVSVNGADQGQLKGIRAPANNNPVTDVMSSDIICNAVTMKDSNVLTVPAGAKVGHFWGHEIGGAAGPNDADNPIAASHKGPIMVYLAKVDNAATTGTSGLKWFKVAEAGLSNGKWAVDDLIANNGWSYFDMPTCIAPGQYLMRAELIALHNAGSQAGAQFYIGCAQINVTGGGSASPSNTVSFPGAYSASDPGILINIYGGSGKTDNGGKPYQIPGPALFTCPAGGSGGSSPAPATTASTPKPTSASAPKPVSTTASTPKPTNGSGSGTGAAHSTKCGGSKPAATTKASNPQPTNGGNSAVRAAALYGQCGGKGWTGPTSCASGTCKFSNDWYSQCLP
In words: HPAEC-PAD product analysis. Type of assay: biochemical. Conditions: 1 mM substrate, 1 µM LPMO, 1 mM ascorbic acid, 50 mM BisTris-HCl pH 6.5, 40 °C, 16 h.

For assay [2], the target named is T2, ScLPMO9A (Schizophyllum commune, UniProt D8Q364).
T2 construct: gene LPMO9A; residues 20-247, pelB signal peptide for periplasmic export, E. coli T7 Express, no tag told; single domain without CBM; 15N-labelled copper-free (apo) protein for NMR
T2 sequence (D8Q364 20-247): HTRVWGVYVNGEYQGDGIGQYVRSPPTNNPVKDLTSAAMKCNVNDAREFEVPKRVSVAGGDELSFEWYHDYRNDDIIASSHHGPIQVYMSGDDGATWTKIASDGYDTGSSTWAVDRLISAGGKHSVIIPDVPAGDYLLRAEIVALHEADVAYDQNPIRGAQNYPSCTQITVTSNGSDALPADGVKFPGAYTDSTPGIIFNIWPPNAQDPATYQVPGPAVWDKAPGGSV
In words: NMR titration, […]-HSQC chemical shift perturbation. In kind it is binding. Conditions: copper-free apo enzyme, 15N-labelled, 25 mM Tris-HCl pH 7.0, 25 mM NaCl, 2.3% glycerol, 25 °C.

With `OC[C@H]1O[C@@H](O[C@H]2[C@H](O)[C@@H](O)[C@H](O[C@H]3[C@H](O)[C@@H](O)[C@H](O[C@H]4[C@H](O)[C@@H](O)[C@H](O[C@H]5[C@H](O)[C@@H](O)[C@H](O[C@H]6[C@H](O)[C@@H](O)C(O)O[C@@H]6CO)O[C@@H]5CO)O[C@@H]4CO)O[C@@H]3CO)O[C@@H]2CO)[C@H](O)[C@@H](O)[C@@H]1O` (stereo partly shown) [cellohexaose], the HPAEC-PAD product analysis result in assay [1] is “With cellohexaose (Glc6), NcLPMO9C generated primarily Glc4gemGlc and cellotetraose”. Besides, in assay [2] (range from four 1H-15N signals), the dissociation constant Kd (in general, the free concentration of one partner at which half of the binding sites on the other are occupied at equilibrium, for simple one-to-one binding) lay within 10 to 40 µM.

On to `OC[C@H]1O[C@@H](O[C@H]2[C@H](O)[C@@H](O)[C@H](O[C@H]3[C@H](O)[C@@H](O)[C@H](O[C@H]4[C@H](O)[C@@H](O)[C@H](O[C@H]5[C@H](O)[C@@H](O)C(O)O[C@@H]5CO)O[C@@H]4CO)O[C@@H]3CO)O[C@@H]2CO)[C@H](O)[C@@H](O)[C@@H]1O` (stereo partly shown) [cellopentaose], for which the Kd in assay [2] (range from two 1H-15N signals) lay in the range of 30 to 50 µM.

For `OC[C@H]1O[C@@H](O[C@H]2[C@H](O)[C@@H](O)[C@H](O[C@H]3[C@H](O)[C@@H](O)[C@H](O[C@H]4[C@H](O)[C@@H](O)C(O)O[C@@H]4CO)O[C@@H]3CO)O[C@@H]2CO)[C@H](O)[C@@H](O)[C@@H]1O` (stereo partly shown) [cellotetraose], in assay [1], the HPAEC-PAD product analysis entry is reported as “NcLPMO9C showed limited activity on cellotetraose (Glc4)”.

The values are drawn from article PMC10575960, “Functional characterization of a lytic polysaccharide monooxygenase from Schizophyllum commune that degrades non-crystalline substrates” (Scientific Reports, 2023).
